Results reported in US6787651B2, “Substituted indoles, pharmaceutical compounds containing such indoles and their use as PPAR-γ binding agents” (SmithKline Beecham Corporation, priority 2000, dated 2004).
Like-named read-outs stand apart in the source and are kept apart here.

What was measured:
[1] = biological target: T1, PPARγ ligand binding domain (LBD) (amino acids 195-475) (Homo sapiens, UniProt P37231); assay: PPAR-γ binding assay (spin plate / gel filtration binding assay, displacement of [3H]BRL 49653)
T1 construct: polyHis; made in house; host or cells: Escherichia coli
T1 sequence (P37231 195-475 isoform P37231-2): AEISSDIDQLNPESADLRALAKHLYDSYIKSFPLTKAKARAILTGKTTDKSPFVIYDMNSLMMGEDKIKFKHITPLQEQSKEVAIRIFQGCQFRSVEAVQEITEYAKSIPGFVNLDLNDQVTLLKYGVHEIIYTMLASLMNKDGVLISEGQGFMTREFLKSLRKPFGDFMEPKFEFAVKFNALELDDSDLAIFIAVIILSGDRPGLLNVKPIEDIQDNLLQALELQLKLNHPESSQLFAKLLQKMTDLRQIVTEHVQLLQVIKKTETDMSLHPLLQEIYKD
Procedure, shortened: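 Spin-plate gel-filtration assay measuring competitive binding against radioligand, run in triplicate and counted by scintillation. Nonspecific binding was defined with 10 μM unlabeled ligand and subtracted. Apparent IC50 was fitted by nonlinear least squares assuming simple competitive binding.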

[2] = read-out: IC50 range in the PPAR-γ Binding Assay

| SMILES | IC50 [1, 2] [nM] | melting point | IC50 [1] [nM] |
| --- | --- | --- | --- |
| COc1cccc(Cn2c(C(=O)O)c(-c3ccc(C(C)(C)C)cc3)c3cc(NCC4CC4)ccc32)c1 [Example 335] | 0.1 to 9.99 | 180 to 181 °C |  |
| CC(=O)Nc1cccc(-c2c(C(=O)O)n(Cc3cccc(OCC4CC4)c3)c3ccccc23)c1 [Example 298] | 10 to 10000 | 122 to 123 °C |  |
| CC(=O)c1ccc(-c2c(C(=O)O)n(Cc3cccc(C(F)(F)F)c3)c3ccccc23)s1 [Example 236] | 0.1 to 9.99 | 212 to 214 °C |  |
| COc1ccc(Cc2c(C(=O)O)n(Cc3cccc(OCC4CC4)c3)c3ccccc23)cc1 [Example 297] | 0.1 to 9.99 | 168 to 170 °C |  |
| COc1cccc(Cn2c(C(=O)O)c3c4cc(ccc42)OCCCCCCOc2cccc-3c2)c1 [Example 300] | 10 to 10000 | 79 to 80 °C |  |
| COc1ccc(-c2c(C(=O)O)n(Cc3cccc(OC)c3)c3c(N(C)C(=O)C4CC4)cccc23)cc1 [Example 303] | 10 to 10000 | 98 °C (dec.) |  |
| COc1ccc(-c2c(C(=O)O)n(Cc3cccc(OC)c3)c3ccc(C(C)=O)cc23)cc1 [Example 301] | 10 to 10000 | 190 °C (dec.) |  |
| COc1cccc(Cn2c(C(=O)O)c(-c3ccc(C(C)(C)C)cc3)c3cc(NC(=O)C4CCCC4)ccc32)c1 [Example 269] | 10 to 10000 | 154 to 156 °C |  |
| CC(C)(C)c1ccc(-c2c(C(=O)O)n(Cc3cccc(OCC4CC4)c3)c3ccccc23)cc1 [Example 288] | 0.1 to 9.99 | 120 °C |  |
| CCOc1ccc(-c2c(C(=O)O)n(Cc3ccc(F)cc3)c3ccc(COCC4CC4)cc23)cc1 [Example 347, 5-[(Cyclopropylmethoxy)methyl]-3-(4-ethoxyphenyl)-1-(4-fluorobenzyl)-1H-indole-2-carboxylic acid] | 0.1 to 9.99 | 171 to 173 °C |  |
| COc1cccc(Cn2c(C(=O)O)c(-c3ccc(C(C)(C)C)cc3)c3cccc(N(C)C(=O)N(C)C4CC4)c32)c1 [Example 293] | 10 to 10000 | 112 to 115 °C (dec.) |  |
| COc1ccc(-c2c(C(=O)O)n(Cc3cccc(OCC4CC4)c3)c3ccccc23)cc1 [Example 287] | 0.1 to 9.99 | 168 °C |  |
| COc1cccc(Cn2c(C(=O)O)c(-c3cccc(C(=O)NC4CC4)c3)c3ccccc32)c1 [Example 328] | 10 to 10000 | 204 °C |  |
| COc1cccc(Cn2c(C(=O)O)c(-c3cccc(C(=O)NC4CCCC4)c3)c3ccccc32)c1 [Example 329] | 10 to 10000 | 108 °C |  |
| COc1ccc(C(=O)c2c(C(=O)O)n(Cc3cccc(C(F)(F)F)c3)c3ccccc23)cc1 [Example 242] |  | 215 to 216 °C | 10 to 10000 |
| CC(C)(C)c1ccc(-c2c(C(=O)O)n(Cc3cccc(OC4CCCC4)c3)c3ccccc23)cc1 [Example 289] | 0.1 to 9.99 | 159 °C |  |
| COc1cccc(Cn2c(C(=O)O)c(-c3ccc(-c4ccco4)cc3)c3ccccc32)c1 [Example 240] | 0.1 to 9.99 | 190 to 192 °C |  |
| O=C(O)c1c(-c2ccc(OCC3CC3)cc2)c2ccccc2n1Cc1cccc(OC(F)(F)F)c1 [Example 346] | 0.1 to 9.99 | 204 to 205 °C |  |
| CCOc1ccc(-c2c(C(=O)O)n(Cc3ccc(F)cc3)c3c(N(C)C(=O)C4CC4)cccc23)cc1 [Example 286] | 10 to 10000 | 128 °C |  |
| COc1ccc(-c2c(C(=O)O)n(CS(=O)(=O)c3ccccc3)c3ccccc23)cc1 [Example 282] | 10 to 10000 | 166 to 168 °C |  |
| COc1cccc(Cn2c(C(=O)O)c(-c3ccc(C(C)(C)C)cc3)c3cc(N(C)C(=O)C4CC4)ccc32)c1 [Example 274] | 10 to 10000 | 219 to 222 °C |  |
| CC(C)c1cccc(-c2c(C(=O)O)n(Cc3cccc(OCC4CC4)c3)c3ccccc23)c1 [Example 284] | 0.1 to 9.99 | 204 °C |  |
| O=C(O)c1c(-c2ccco2)c2ccccc2n1Cc1cccc(C(F)(F)F)c1 [Example 237] | 0.1 to 9.99 | 172 to 173 °C |  |
| COc1cccc(Cn2c(C(=O)O)c(-c3ccc(C(C)(C)C)cc3)c3cc(COCC4CC4)ccc32)c1 [Example 266] | 0.1 to 9.99 | 79 to 80 °C |  |
| O=C(O)c1c(-c2ccc(OCC3CC3)cc2)c2ccccc2n1Cc1ccc(F)cc1 [Example 341] | 0.1 to 9.99 | 197 to 198 °C |  |
